This note sets out measurements from patent US8618169B2, “Derivatives of N-phenylanthranilic acid and 2-benzimidazolone as potassium channel and/or neuron activity modulators” (Ramot at Tel-Aviv University Ltd., priority 2002, dated 2013).

Structures are written as SMILES.

One assay relates to rat cortical neurons. Nature of the assay: Evoked and spontaneous action potential activity of cultured rat cortical neurons, current-clamp. The format is cell-based. The note with it: 10 μM.
Assay [1] has as its system hippocampal pyramidal neurons. Nature of the assay: Spontaneous EPSCs of hippocampal pyramidal neuron cultures, voltage-clamp. In kind it is cell-based. Conditions: 10 μM. The protocol:
To further determine the synaptic site of M-channel activation by Compound 6, its effects on spontaneous excitatory postsynaptic currents (EPSCs) that could be recorded from dense networks of hippocampal pyramidal neuron cultures was tested.
In FIGS. 30B and 30C, burst activity before (control), in the presence (Compound 6) and after (Wash) application of 5 μM (FIG. 30B) and 10 μM (FIG. 30C) Compound 6, as recorded at the voltage clamp mode is shown. In FIG. 30D, burst activity before (control) and in the presence of 25 μM Linopirdine is shown. In FIG. 30E, the normalized number of bursts appeared in 180 seconds time period for 5 μM (left panel), 10 μM (mid panel) of Compound 6 and 25 μM linopirdine (right panel) are shown. The holding potential was −70 mV. n=5-6.
Thus, using the voltage-clamp configuration of the patch-clamp technique, spontaneous EPSCs were isolated at −70 mV (holding potential) in the presence of 10 μM bicuculline and 10 μM picrotoxin to block GABAA receptor-mediated inhibitory postsynaptic currents. As is shown in FIG. 30A, under control conditions, the frequency of EPSCs is variable depending of the density of the hippocampal culture, ranging from 0.4 Hz to 2 Hz. […] However, the majority of the EPSCs measured at −70 mV under the experimental recording conditions are mediated by AMPA receptors as most of the currents are blocked by 10 μM NBQX, leaving only a small fraction EPSC sensitive to the NMDA receptor blocker DL-AP5 (FIG. 30A).

As to `O=C1N(c2ccccc2)c2ccccc2C1(Cc1ccncc1)Cc1ccncc1` [linopirdine], in the assay on rat cortical neurons, the “effect on spontaneous spiking activity” value is on record as “significantly enhanced the frequency of spontaneous spiking”. In addition, the “frequency of EPSCs” value in assay [1] is on record as “up to 278±41 % of control”.
